Data from patent US20220323406A1, “METHODS AND COMPOSITIONS FOR DIFFERENTIATING STEM CELLS” (Massachusetts Institute of Technology, priority 2019, published 2022).

Key:
[1] = test system: ENR+CD organoids; assay: Primary screen: ATP (CellTiter-Glo 3D, CTG) cell number/viability, 2.5-D 384-well ENR+CD organoids;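 also: compounds given at plating and again on day 3 over a 6-day differentiation from ENR+CV stem-cell-enriched precursors, ATP measured on day 6, plate median as control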
[2] = test system: ENR+CD organoids (ISC to Paneth cell differentiation); assay: Primary screen: basal (non-stimulated) lysozyme secretion LYZ.NS, 2.5-D 384-well ENR+CD organoid differentiation; format: cell-based, mouse
From the text: (§1) High-throughput screening.

[3] = test system: ENR+CD organoids (ISC to Paneth cell differentiation); assay: Primary screen: CCh-stimulated lysozyme secretion LYZ.S, 2.5-D 384-well ENR+CD organoid differentiation; format: cell-based, mouse; conditions: primary screen
From the text: as §1

[4] = primary screen; dose 0.08 uM; FC vs plate median
[5] = primary screen; dose 0.40 uM; FC vs plate median
[6] = primary screen; dose 2.00 uM; FC vs plate median
[7] = primary screen; dose 10.00 uM; FC vs plate median
[8] = primary screen, dose 0.08 uM, standard z score
[9] = primary screen, dose 0.40 uM, standard z score
[10] = primary screen, dose 2.00 uM, standard z score
[11] = primary screen, dose 10.00 uM, standard z score
[12] = dose 0.08 uM, FC vs plate median
[13] = dose 0.40 uM, FC vs plate median
[14] = dose 2.00 uM, FC vs plate median
[15] = dose 10.00 uM, FC vs plate median
[16] = primary screen, dose 0.08 uM, FC relative to plate median
[17] = primary screen, dose 0.40 uM, FC relative to plate median
[18] = primary screen, dose 2.00 uM, FC relative to plate median
[19] = primary screen, dose 10.00 uM, FC relative to plate median
[20] = primary screen, standard z score, dose 0.08 uM
[21] = primary screen, standard z score, dose 0.40 uM
[22] = primary screen, standard z score, dose 2.00 uM
[23] = primary screen, standard z score, dose 10.00 uM

Compound	Dose.FC.CTG ([1]; primary screen, dose 0.08 uM) [log2 fold change]	Z.CTG (standard z score) ([1]; primary screen, dose 0.08 uM)	Dose.FC.CTG ([1]; primary screen, dose 0.40 uM) [log2 fold change]	Z.CTG (standard z score) ([1]; primary screen, dose 0.40 uM)	Dose.FC.CTG ([1]; primary screen, dose 2.00 uM) [log2 fold change]	Z.CTG (standard z score) ([1]; primary screen, dose 2.00 uM)	Dose.FC.CTG ([1]; primary screen, dose 10.00 uM) [log2 fold change]	Z.CTG (standard z score) ([1]; primary screen, dose 10.00 uM)	Dose.FC.LYZ.NS ([2]; primary screen, dose 0.08 uM) [log2 fold change]	Z.LYZ.NS (standard z score) ([2]; primary screen, dose 0.08 uM)	Dose.FC.LYZ.NS ([2]; primary screen, dose 0.40 uM) [log2 fold change]	Z.LYZ.NS (standard z score) ([2]; primary screen, dose 0.40 uM)	Dose.FC.LYZ.NS ([2]; primary screen, dose 2.00 uM) [log2 fold change]	Z.LYZ.NS (standard z score) ([2]; primary screen, dose 2.00 uM)	Dose.FC.LYZ.NS ([2]; primary screen, dose 10.00 uM) [log2 fold change]	Z.LYZ.NS (standard z score) ([2]; primary screen, dose 10.00 uM)	Dose.FC.LYZ.S ([3]; dose 0.08 uM) [log2 fold change]	Dose.FC.LYZ.S ([3]; dose 0.40 uM) [log2 fold change]	Dose.FC.LYZ.S ([3]; dose 2.00 uM) [log2 fold change]	Dose.FC.LYZ.S ([3]; dose 10.00 uM) [log2 fold change]	also measured
C[C@H]1COC2(CCN(c3nc(=O)c4cc(C(F)(F)F)cc([N+](=O)[O-])c4s3)CC2)O1 (racemic) [BTZ043 Racemate]	0.497	1.187	0.545	1.303	0.063	0.150	0.327	0.782	0.131	1.138	0.186	1.619	0.089	0.776	0.100	0.870	0.199	0.252	0.038	0.070	
CC(C)CC(=O)Nc1[nH]nc2c1CN(C(=O)C1CCN(C)CC1)C2(C)C [PHA-793887]																					Dose.FC.CTG [1, 4]: 0.113 log2 fold change; Dose.FC.CTG [1, 5]: 0.132 log2 fold change; Dose.FC.CTG [1, 6]: −0.144 log2 fold change; Dose.FC.CTG [1, 7]: −0.856 log2 fold change; Z.LYZ.NS [2, 8]: 0.275; Z.LYZ.NS [2, 9]: 0.085; Z.LYZ.NS [2, 10]: −1.187; Z.LYZ.NS [2, 11]: −2.324; Dose.FC.LYZ.NS [2, 4]: 0.032 log2 fold change; Dose.FC.LYZ.NS [2, 5]: 0.010 log2 fold change; Dose.FC.LYZ.NS [2, 6]: −0.136 log2 fold change; Dose.FC.LYZ.NS [2, 7]: −0.267 log2 fold change; Dose.FC.LYZ.S [3, 12]: 0.046 log2 fold change; Dose.FC.LYZ.S [3, 13]: 0.100 log2 fold change; Dose.FC.LYZ.S [3, 14]: −0.081 log2 fold change; Dose.FC.LYZ.S [3, 15]: −0.292 log2 fold change
CCCS(=O)(=O)Nc1ccc(F)c(C(=O)c2c[nH]c3ncc(-c4ccc(Cl)cc4)cc23)c1F [Vemurafenib (PLX4032, RG7204)]	0.124	0.297	−0.082	−0.195	−0.006	−0.014	0.030	0.073	0.090	0.786	0.053	0.462	0.047	0.411	0.030	0.263	0.120	0.150	0.055	0.022	
CC1(C)CCC(c2ccc(Cl)cc2)=C(CN2CCN(c3ccc(C(=O)NS(=O)(=O)c4ccc(N[C@H](CCN5CCOCC5)CSc5ccccc5)c(S(=O)(=O)C(F)(F)F)c4)cc3)CC2)C1 [ABT-263 (Navitoclax)]	−0.212	−0.507	−0.264	−0.631	−0.368	−0.878	−0.962	−2.298	0.012	0.104	0.007	0.062	−0.143	−1.248	−0.259	−2.259	−0.010	−0.020	−0.205	−0.400	
C[C@]1(O)C[C@@H](c2nc(-c3ccc4ccc(-c5ccccc5)nc4c3)c3c(N)nccn32)C1 [OSI-906 (Linsitinib)]																					Z.CTG [1, 8]: −0.775; Z.CTG [1, 9]: −0.377; Z.CTG [1, 10]: −0.661; Z.CTG [1, 11]: −0.934; Dose.FC.CTG [1, 4]: −0.324 log2 fold change; Dose.FC.CTG [1, 5]: −0.158 log2 fold change; Dose.FC.CTG [1, 6]: −0.277 log2 fold change; Dose.FC.CTG [1, 7]: −0.391 log2 fold change; Z.LYZ.NS [2, 8]: 0.110; Z.LYZ.NS [2, 9]: −0.806; Z.LYZ.NS [2, 10]: −1.882; Z.LYZ.NS [2, 11]: −1.996; Dose.FC.LYZ.NS [2, 4]: 0.013 log2 fold change; Dose.FC.LYZ.NS [2, 5]: −0.093 log2 fold change; Dose.FC.LYZ.NS [2, 6]: −0.216 log2 fold change; Dose.FC.LYZ.NS [2, 7]: −0.229 log2 fold change; Dose.FC.LYZ.S [3, 12]: −0.026 log2 fold change; Dose.FC.LYZ.S [3, 13]: −0.119 log2 fold change; Dose.FC.LYZ.S [3, 14]: −0.288 log2 fold change; Dose.FC.LYZ.S [3, 15]: −0.328 log2 fold change
CN1CCN(c2nc(C3=C(c4c[nH]c5ccccc45)C(=O)NC3=O)c3ccccc3n2)CC1 [Sotrastaurin]																					Dose.FC.CTG [1, 16]: 0.010 log2 fold change; Dose.FC.CTG [1, 17]: −0.120 log2 fold change; Dose.FC.CTG [1, 18]: −0.272 log2 fold change; Dose.FC.CTG [1, 19]: −0.242 log2 fold change; Dose.FC.LYZ.NS [2, 16]: 0.193 log2 fold change; Z.LYZ.NS [2, 8]: 1.678; Dose.FC.LYZ.NS [2, 17]: −0.065 log2 fold change; Z.LYZ.NS [2, 9]: −0.567; Dose.FC.LYZ.NS [2, 18]: 0.014 log2 fold change; Z.LYZ.NS [2, 10]: 0.125; Dose.FC.LYZ.NS [2, 19]: −0.126 log2 fold change; Z.LYZ.NS [2, 11]: −1.101; Dose.FC.LYZ.S ([3]; dose 0.08 uM, FC relative to plate median): 0.097 log2 fold change; Dose.FC.LYZ.S ([3]; dose 0.40 uM, FC relative to plate median): −0.043 log2 fold change; Dose.FC.LYZ.S ([3]; dose 2.00 uM, FC relative to plate median): −0.085 log2 fold change; Dose.FC.LYZ.S ([3]; dose 10.00 uM, FC relative to plate median): −0.164 log2 fold change
O=C(Nc1cccc(Nc2ncc(Br)c(NCCc3cnc[nH]3)n2)c1)N1CCCC1 [BX-912]	0.043		0.054		−0.246		−0.397		0.010		0.017		−0.089		−0.196		0.038	0.042	−0.161	−0.272	Z.CTG [1, 20]: 0.103; Z.CTG [1, 21]: 0.129; Z.CTG [1, 22]: −0.587; Z.CTG [1, 23]: −0.949; Z.LYZ.NS [2, 20]: 0.090; Z.LYZ.NS [2, 21]: 0.151; Z.LYZ.NS [2, 22]: −0.771; Z.LYZ.NS [2, 23]: −1.704
Cc1ccc(NC(=O)c2ccc(CN3CCN(C)CC3)cc2)cc1Nc1nccc(-c2cccnc2)n1 [Imatinib (STI571)]		−0.357		0.188		0.135		−0.082		0.284		0.104		0.217		−0.333					Dose.FC.CTG (log2 fold change) ([1]; primary screen, dose 0.08 uM): −0.150; Dose.FC.CTG (log2 fold change) ([1]; primary screen, dose 0.40 uM): 0.079; Dose.FC.CTG (log2 fold change) ([1]; primary screen, dose 2.00 uM): 0.056; Dose.FC.CTG (log2 fold change) ([1]; primary screen, dose 10.00 uM): −0.034; Dose.FC.LYZ.NS (log2 fold change) ([2]; primary screen, dose 0.08 uM): 0.033; Dose.FC.LYZ.NS (log2 fold change) ([2]; primary screen, dose 0.40 uM): 0.012; Dose.FC.LYZ.NS (log2 fold change) ([2]; primary screen, dose 2.00 uM): 0.025; Dose.FC.LYZ.NS (log2 fold change) ([2]; primary screen, dose 10.00 uM): −0.038; Dose.FC.LYZ.S (log2 fold change) ([3]; dose 0.08 uM): 0.000; Dose.FC.LYZ.S (log2 fold change) ([3]; dose 0.40 uM): 0.038; Dose.FC.LYZ.S (log2 fold change) ([3]; dose 2.00 uM): −0.001; Dose.FC.LYZ.S (log2 fold change) ([3]; dose 10.00 uM): −0.037
C#Cc1cccc(Nc2ncnc3cc(OCCOC)c(OCCO)cc23)c1 [OSI-420]																					Z.CTG [1, 8]: 0.254; Z.CTG [1, 9]: −0.311; Z.CTG [1, 10]: −3.016; Z.CTG [1, 11]: −2.627; Dose.FC.CTG [1, 4]: 0.106 log2 fold change; Dose.FC.CTG [1, 5]: −0.130 log2 fold change; Dose.FC.CTG [1, 6]: −1.263 log2 fold change; Dose.FC.CTG [1, 7]: −1.100 log2 fold change; Z.LYZ.NS [2, 8]: 1.002; Z.LYZ.NS [2, 9]: −1.948; Z.LYZ.NS [2, 10]: −2.498; Z.LYZ.NS [2, 11]: −2.833; Dose.FC.LYZ.NS [2, 4]: 0.115 log2 fold change; Dose.FC.LYZ.NS [2, 5]: −0.224 log2 fold change; Dose.FC.LYZ.NS [2, 6]: −0.287 log2 fold change; Dose.FC.LYZ.NS [2, 7]: −0.325 log2 fold change; Dose.FC.LYZ.S [3, 12]: 0.059 log2 fold change; Dose.FC.LYZ.S [3, 13]: −0.221 log2 fold change; Dose.FC.LYZ.S [3, 14]: −0.381 log2 fold change; Dose.FC.LYZ.S [3, 15]: −0.374 log2 fold change
Nc1nc(N)c2nc(-c3ccccc3)c(N)nc2n1 [Triamterene]	−0.029		−0.165		−0.101		−0.462		0.103	0.894	0.030	0.266	−0.056	−0.490	−0.187	−1.630	0.048	0.051	−0.065	−0.290	
